Earlier results in patent US20250064735A1, “CONTAINER SYSTEM AND PHARMACEUTICAL FOAM COMPOSITION COMPRISING BETAMETHASONE” (Glenmark Pharmaceuticals Limited, priority 2018, published 2025).

pH at which the substance is stable | SMILES
greater than 8 | C=C1/C(=C\C=C2/CCC[C@]3(C)[C@@H]([C@H](C)/C=C/[C@@H](O)C4CC4)CC[C@@H]23)C[C@@H](O)C[C@@H]1O [Calcipotriene]
4-6 | CC1C[C@H]2[C@@H]3CCC4=CC(=O)C=C[C@]4(C)[C@@]3(F)C(O)C[C@]2(C)[C@@]1(O)C(=O)CO (some centres unmarked) [Betamethasone, 9-fluoro-11,17,21-trihydroxy-16-methylpregna-1,4-diene-3,20-dione]
